Measurements reported in patent US20240293344A1, “Unsaturated Hydroxamic Acid Derivatives and Their Use for the Treatment and Prevention of an Ammonia-Associated Disease or Disorder” (Versantis AG, priority 2021, published 2024).
Where two headings read alike, the source gives them in different places.

Experiments:
[1] = system: bacterial urease; assay: Rat caecum content assay (urease inhibitory activity, ammonia production from urea); format: cell-based, bacteria of rat caecum content
Description: To evaluate the inhibitory activity of HAs, the inventors first established an in vitro assay using rat caecum content.
The use of caecum content samples for the initial screening of urease inhibitors allowed to rapidly identify stable and membrane permeable inhibitors that cover a broad spectrum of bacterial ureases present in the gastrointestinal tract.
According to the herein established protocol, rat caecum content provided by the ETH Phenomics center was diluted in 200 mM potassium phosphate monobasic buffer pH 6.8 and centrifuged at 100×g to remove large particles. The supernatant with dispersed bacteria was collected, mixed with urea and then incubated with an increasing range of inhibitor concentrations for 30 min at 37° C. with constant shaking. In this setup initial concentrations of bacteria and urea were adjusted to the values that lead to the production of ammonia at a final concentration of approximately 1000 μM. Bacterial urease converts urea to ammonia, which was quantified by an enzymatic assay (Ammonia assay, Randox Laboratories, UK).
The established assay was then used to evaluate the potency of commercially available HAs as well as synthesized HAs of the present disclosure. As most of the tested HAs have low aqueous solubility, cyclodextrins were used to prepare water-soluble formulations of the compounds. In this study, a stock solution of acetohydroxamic acid (AHA) was prepared in DMSO, and stock solutions of octanohydroxamic acid (OHA) and 2-octynohydroxamic acid (2-octynoHA) were prepared by dissolving them in aqueous solutions of 2-hydroxypropyl-p-cyclodextrin (HPβCD) in 1:2 and 1:4 molar ratios, respectively. The obtained mixtures were sonicated and heated at 37° C. until fully dissolved.
Besides 2-octynoHA, the urease inhibitory activity of other unsaturated alkylated HAs consisting of 8 carbons was assessed. These included 2-octenohydroxamic acid (2-octenoHA), 3-octenohydroxamic acid (3-octenoHA), 3-octynohydroxamic acid (3-octynoHA) and 7-octynohydroxamic acid (7-octynoHA). Prior to assessing potency in the rat caecum content assay, stock solutions of 2-octenoHA and 3-octenoHA were prepared using HPβCD solution (1:4 molar ratio of HA to HPβCD), stock solutions of 3-octynoHA and 7-octynoHA were prepared using mixture of 10% DMSO and HPβCD solution. The 7-octynoHA presented a lower potency than unsaturated alkylated HAs having a double/triple bond at positions 2 or 3.

[2] = system: bile-duct ligated (BDL) rat model of hepatic encephalopathy; assay: In vivo efficacy in bile-duct ligated (BDL) rats, blood ammonia; conditions: 30 mg/kg twice a day by gavage in HPβCD solution, dropped from 53±30.31 μmol/L before treatment, n=4
Description: Efficacy of 2-octynoHA was evaluated in the bile-duct ligated (BDL) rat model, which is recommended by the International Society for Hepatic Encephalopathy and Nitrogen Metabolism (ISHEN) as an animal model of hepatic encephalopathy (HE) associated with chronic liver cirrhosis. This model is obtained by obstruction of the common bile duct that causes impairment of liver function and thereby development of hyperammonemia and low-grade HE.
In this study, on the DO blood ammonia levels were measured (n=4, 27.25±6.18 μmol/L) using PocketChem™ (Arkray, Japan) after which all rats were subjected to the BDL surgery. Right before surgery all animals were given injection of slow-release buprenorphine (lasting 72 h) between the shoulder blades. Then, animals were anesthetized with isoflurane in O2. Depth of anesthesia was checked by toe-pinching. Further, a midline incision was made (2 cm), and then the common bile duct was isolated of surrounding tissue, tightly ligated twice with silk suture and cut between the 2 ligations. Abdominal incision was closed with Vicryl™ 4-0 for muscle layers; skin was closed with staples and one drop of Vetbond™ tissue glue was applied to secure closing. Animals were then placed on heating pad for recovery. For the first 4 weeks post-surgery, animals were monitored for pain level, extent of jaundice, body weight (BW) and disease scores. […]

[3] = system: S. typhimurium strains (TA98, TA100, TA1535, TA1537); assay: Ames test (Ames MPF Penta 1), S. typhimurium strains
Text: A commercial microplate format test kit (Ames MPF™ Penta 1, Xenometrix, Switzerland) was used for this experiment. The most commonly used strains in the Ames tests, S. typhimurium with point mutations in the histidine operon and E. coli with mutations in the tryptophan operon were utilized as the model systems. The mutagenicity of the three hydroxamic acids was investigated in four S. typhimurium strains (TA98, TA100, TA1535, TA1537) and in the mixture of two E. coli strains (wp2 [pKM101] and wp2 uvrA) with and without metabolic activation (S9 fraction) according to the manufacturer's protocol.
Bacteria were exposed to 6 concentrations of the test compounds, solvent control (DMSO) and positive control substances (concentrations listed in Tables I-II below) for 90 min in the medium containing enough histidine for S. typhimurium or tryptophan for E. coli to support cell growth. After that, the cultures media were diluted with pH indicator solution lacking histidine or tryptophan and aliquoted into 48 wells of a 384-well plate. Within 48 hours, media containing cells that reverted to amino acid prototrophy turned yellow as bacteria metabolism reduced the pH of the media. The number of yellow wells containing revertant colonies was counted for each dose of the test compounds and compared to the solvent control.

[4] = system: mixture of E. coli strains (wp2 [pKM101] and wp2 uvrA); assay: Ames test (Ames MPF Penta 1), E. coli strain mixture; format: cell-based; conditions: with or without metabolic activation (S9)
Description: A commercial microplate format test kit (Ames MPF™ Penta 1, Xenometrix, Switzerland) was used for this experiment. […] The mutagenicity of the three hydroxamic acids was investigated in four S. typhimurium strains (TA98, TA100, TA1535, TA1537) and in the mixture of two E. coli strains (wp2 [pKM101] and wp2 uvrA) with and without metabolic activation (S9 fraction) according to the manufacturer's protocol.

[5] = system: N-Nitrosodiethylamine induced liver disease in rats; assay: In vivo efficacy in N-nitrosodiethylamine (DEN) induced liver disease in rats, blood ammonia; design: species or system rat; conditions: gavage twice a day from day 3, n=10
Description: Efficacy of 2-octynoHA was assessed in male Sprague Dawley rats (Beijing Vital River Laboratory Animal Technology Co., Ltd, China) in a model of acute liver disease. The liver damage was induced by reoccurring intraperitoneal injections of N-nitrosodiethylamine (DEN) 60 mg/kg on days 1, 3, 5, and 7.
Four groups of rats were included. The first control group was treated with a solution of HPβCD 270 mg/kg (n=10). The second group was treated with a suspension of rifaximin 30 mg/kg (n=10). The third group was treated with a suspension of rifaximin 60 mg/kg (n=10). The fourth group was treated with 15 mg/kg of 2-octynoHA dissolved in HPβCD solution (1:1 molar ratio of 2-octynoHA to HPβCD) (n=10). All groups received the treatment via gavage twice a day from day 3 to day 8. Blood samples were collected sublingually on days 0, 6 and 8. Blood ammonia level was measured in collected samples using PocketChem™ (Arkray, Japan).

[6] = Stability of 2-octynoHA in solution (UHPLC-UV); format: physicochemical
Description: Preliminary stability of 2-octynoHA was assessed in HBSS pH 7.4 supplemented with HEPES 15 mM and compared to stability of the molecule in ultra-pure water.
Both solutions of 2-octynoHA were prepared to a final concentration of 0.5 mg/mL. 2-octynoHA was incubated for ca. 20 min at 37° C. until fully dissolved in the corresponding media. Once solutions were prepared, they were subjected to UHPLC-UV analysis within ca. 1 h while being kept at room temperature. For chromatographic separation and spectrophotometric analysis, 2 μL of each solution were injected. The chromatographic separation was performed on a 10 cm Polar C18 UHPLC column with a mobile phase composed of water, acetonitrile and formic acid 0.1%.
Detection was performed on a diode array detector by monitoring UV absorbance at 200 nm. 2-octynoHA was detected at 200 nm with RT=5.36 min in both solutions.
In order to identify the product of degradation, a solution of 2-octynoHA 10 mM was prepared in phosphate buffer (KH2PO4 200 mM pH 6.8) and left to incubate overnight at 37° C. […] The product of degradation was then extracted with chloroform, the organic phase was collected, dried over Na2SO4 and filtered. The solvent was evaporated, the obtained substance was dissolved in deuterated dimethyl sulfoxide (DMSO-d6) for ^1H NMR analysis.

[7] = Pharmacokinetics in male beagle dogs (plasma); format: in vivo, dog; conditions: for bioavailability: dog
Text: The main objective of the experiment was to quantify the levels of 2-octynoHA in the plasma of male beagle dogs following I.V. administration of a solution of 2-octynoHA with HPβCD (1:1 molar ratio) (PK 1), oral (P.O.) administration of 2-octynoHA formulated in an uncoated gelatin capsule size 0 (PK 2), and oral administration of 2-octynoHA formulated in a coated (Eudragit S100 15% w/w, triethyl citrate 5% w/w, isopropyl alcohol 40% w/w, ethanol 40% w/w) gelatin capsule size 0 for colonic delivery (PK 3) (Table Ill). For each of the studies, three animals were administered with a single dose of the corresponding treatment. Plasma samples were collected at pre-determined time points (Table Ill).
In PK 1, the plasma samples were extracted by protein precipitation prior to analysis. In brief, 40 μL plasma was precipitated with 2 volumes (80 μL) of an organic solvent solution consisting of acetonitrile:methanol (80:20 v/v) containing 1% formic acid. Samples were vortex-mixed and centrifuged at 13,000 rpm. 100 μL of supernatant were further diluted with 100 μL water containing 0.1% formic acid (final dilution factor of 6×). The sample extracts were transferred into a 96-well plate. Four μL plasma extract were injected for chromatographic separation and high resolution/accurate mass analysis. Separation was performed on a 5 cm C18 UPLC column, detection and quantification were performed on a quadrupole time-of-flight (QTof) mass spectrometer in the positive ion mode.
In both PK 2 and PK 3, prior to extraction, plasma samples (ca. 700 μL) were acidified by adding 15 μL of 50% phosphoric acid in water. Then, plasma samples (40 μL) were extracted by protein precipitation by adding 2 volumes (80 μL) of an organic solvent solution consisting of acetonitrile:methanol (80:20 v/v) containing 0.2% formic acid.
Samples were vortex-mixed and centrifuged at 13,000 rpm for 5 min. 100 μL of supernatant were further diluted with 100 μL water containing 0.1% formic acid (final dilution factor of 6×). The sample extracts were transferred into a 96-well plate. Five μL were injected for chromatographic separation and further mass analysis. The chromatographic separation was performed on a 10 cm C18 UPLC column and the MS detection and quantification was performed on a quadrupole time-of-flight (QTof) mass spectrometer in the positive ion mode.
Concentrations of 2-octynoHA was quantified based on the calibration curve. In the PK 1, 2-octynoHA was detected at the m/z 156.1 with the retention time (RT) of 4.12 min. […] Concentration values below the lower limit of quantitation (LLOQ) (i.e., lowest amount of an analyte in a sample that can be quantitatively determined with suitable precision and accuracy) were considered equal to zero.

[8] = system: Caco-2 cells; assay: Cytotoxicity in Caco-2 cells (CCK-8); conditions: 24 h; for Caco-2 cell viability (percentage of the medium control): 10 mM
Description: (§1) The compounds used were 2-octynoHA, OHA (Tokyo Chemical Industry Co., Ltd.; Japan) and AHA (Sigma-Aldrich, St. Louis, MO) The human colorectal adenocarcinoma cell line Caco-2 was obtained from American Type Culture Collection. The cells were cultured in complete medium containing DMEM (Dulbecco's modified Eagle's medium) high glucose, GlutaMax™, pyruvate (Thermo Fisher Scientific, Waltham, MA) supplemented with 10% fetal bovine serum (Thermo Fisher Scientific, Waltham, MA), 1% penicillin-streptomycin (Thermo Fisher Scientific, Waltham, MA) and 15 mM HEPES (Thermo Fisher Scientific, Waltham, MA). The cells were incubated at 37° C. in a humidified atmosphere with 5% CO2. Caco-2 cells were used in the experiments from passage 50 to 60 and were tested negative for mycoplasma.
(§2) The cytotoxicity of HAs was assessed using Cell Counting Kit-8 (CCK-8, Sigma-Aldrich, St. Louis, MO), a colorimetric assay based on tetrazolium salt WST-8 which is reduced by dehydrogenases in cells to an orange-colored formazan. The absorbance of formazan at 450 nm is directly proportional to the number of living cells.
(§3) In order to test cytotoxicity of HAs, Caco-2 cells were seeded in a 96-well plate at a density of 5×10^3 cell/well and grown for 1 day. Then, cells were treated with an increasing range of inhibitors' concentrations and incubated for another 24 h at 37° C., 5% CO2. […] After incubation, cells were washed with phosphate buffered saline (Thermo Fisher Scientific, Waltham, MA), treated with DMEM without phenol red (Thermo Fisher Scientific, Waltham, MA) containing CCK-8 reagent and incubated for another 2 h at 37° C. in a humidified atmosphere with 5% CO2. The absorbance of medium at 450 nm was measured using Tecan Infinite M200 PRO plate reader. Caco-2 cell viability was calculated as a percentage of the medium control.

[9] = system: Caco-2 cells; conditions: human, 24 h
Description: as §1, §2, §3

[10] = TA98, TA100, TA1535, TA1537, with or without metabolic activation (S9)
[11] = rat caecum content with urea, 30 min at 37° C., pH 6.8; read-out: IC50, bacterial urease inhibitory activity

Structure (SMILES): CCCCCC#CC(=O)NO [2-octynoHA, N-hydroxyoct-2-ynamide]
- IC50 ([1]; read-out: IC50, bacterial urease inhibitory activity; rat caecum content with urea, 30 min at 37° C., pH 6.8): ~38 µM
- mean blood ammonia level three days after initiating treatment [2]: 11 ± 5.68 µmol/L
- mutagenicity (reverse mutations) [3, 10]: not mutagenic up to 1 mM
- mutagenicity (reverse mutations) [4]: not mutagenic up to 1 mM
- blood ammonia level on day 6 ([5]; 15 mg/kg in HPβCD solution): 20 ± 9.6 µM
- degradation in solution (UHPLC-UV) ([6]; 0.5 mg/mL in HBSS pH 7.4 with HEPES 15 mM, ca. 20 min at 37° C., analysed within ca. 1 h at room temperature): degraded
- degradation in solution (UHPLC-UV) ([6]; 0.5 mg/mL in ultra-pure water, ca. 20 min at 37° C., analysed within ca. 1 h at room temperature): No degradation
- degradation in solution (UHPLC-UV) ([6]; 10 mM in KH2PO4 200 mM pH 6.8, overnight at 37° C.): Complete degradation
- plasma concentration ([7]; PK 3: P.O., 300 mg per dog, coated (Eudragit S100) gelatin capsule for colonic delivery): below LLOQ
- bioavailability ([7]; male, beagle, plasma, po, 300 mg, uncoated gelatin capsule, dose-adjusted AUC0-t of PK 1 and PK 2, read-out: bioavailability after oral administration): ~4.5%
- bioavailability ([7]; male, beagle, plasma, po, delivery via a colonic capsule, read-out: oral bioavailability): ~0%
- Tmax ([7]; male, beagle, plasma, po, PK 2: P.O., 300 mg per dog, uncoated gelatin capsule): 30 min
- AUC(0-t) ([7]; male, beagle, plasma, po, PK 2: P.O., 300 mg per dog, uncoated gelatin capsule, read-out: AUC0-t (t=12 h)): ~213 ng·h/mL
- AUC(0-t) ([7]; plasma, iv, PK 1: I.V., 100 mg per dog, solution with HPβCD (1:1), male beagle dogs, read-out: AUC0-t (t=4 h)): ~1780 ng·h/mL
- Caco-2 cell viability (percentage of the medium control) [8]: ca. 6%
- concentration up to which no cytotoxicity was detected ([8]; Caco-2 cells): up to 1 mM

Structure (SMILES): C#CCCCCCC(=O)NO [7-octynoHA, 7-octynohydroxamic acid]
- potency compared with unsaturated alkylated HAs having a double/triple bond at positions 2 or 3 ([1]; rat caecum content assay, FIG. 6): lower potency

Structure (SMILES): CC(=O)NO [AHA, N-hydroxyacetamide]
- IC50 [1, 11]: 7300 µM
- mutagenicity (reverse mutations) ([3]; TA98, TA100 and TA1537 strains at 5 and 10 mM): mutagenic potential was detected
- concentration up to which no cytotoxicity was detected [9]: up to 10 mM

Structure (SMILES): CCCCCCCC(=O)NO [OHA, N-hydroxyoctanamide, reference compound]
- IC50 [1, 11]: 230 µM
- mutagenicity (reverse mutations) [3, 10]: not mutagenic
- mutagenicity (reverse mutations) [4]: not mutagenic
- Caco-2 cell viability (percentage of the medium control) [8]: no live cells were observed

Structure (SMILES): OO [hydrogen peroxide, reference compound]
- Caco-2 cell viability (percentage of the medium control) [8]: 1.79±6%

Structure (SMILES): CO[C@H]1/C=C/O[C@@]2(C)Oc3c(C)c(O)c4c(O)c(c5c(nc6cc(C)ccn65)c4c3C2=O)NC(=O)/C(C)=C\C=C\[C@H](C)[C@H](O)[C@@H](C)[C@@H](O)[C@@H](C)[C@H](OC(C)=O)[C@@H]1C [rifaximin, reference compound]
- blood ammonia level on day 6 ([5]; 30 mg/kg suspension): 44 ± 22.4 µM
